Experiment [1] has as its system rabbit serum obtained by immunizing a rabbit with the SARS-CoV strain Frankfurt 1. The experiment is classed as binding. Details: Binding of a rabbit serum to linear peptides / Binding of a rabbit serum to looped peptides / Rabbit serum linear peptides / Rabbit serum looped peptides / Binding of a rabbit serum to linear peptides of protein N of SARS-CoV Urbani (Rabbit serum linear peptides) / Binding of a rabbit serum to looped/cyclic peptides of protein N of SARS-CoV Urbani (Rabbit serum looped peptides): unit not given here.

In experiment [2] the test system is recombinant human anti-SARS-CoV antibody 03-018. The experiment is classed as binding. Also noted: Binding of antibody 03-018 to linear peptides of the N protein of SARS-CoV Urbani / Binding of antibody 03-018 to looped/cyclic peptides of the N protein of SARS-CoV Urbani: unit not given here.
Experiment [3] deals with antibodies in sera from SARS patients (sera 1a, 1b, 2, 6, 37, 62, London, SARS-yellow, SARS-green). The experiment is classed as binding, human. Details: Binding of serum 6 to linear peptides of protein X1 of SARS-CoV Urbani / Binding of serum 37 to linear peptides of protein X1 of SARS-CoV Urbani / Binding of serum 6 to looped/cyclic peptide (PEPSCAN-ELISA) / Binding of serum 37 to looped/cyclic peptide (PEPSCAN-ELISA) / Binding of serum 37 to looped/cyclic peptides of protein X1 of SARS-CoV Urbani / Binding of serum 6 to linear peptides of protein X2 / Binding of serum 37 to linear peptides of protein X2 / Binding of serum 37 to looped/cyclic peptides of protein X2 of SARS-CoV Urbani / Binding of serum 6 to linear peptides of protein M of SARS-CoV Urbani / Binding of serum 37 to linear peptides of protein M of SARS-CoV Urbani / Binding of serum 6 to looped/cyclic peptides of protein M of SARS-CoV Urbani / Binding of serum 37 to looped/cyclic peptides of protein M of SARS-CoV Urbani / Binding of serum 6 to linear peptides of protein X3 of SARS-CoV Urbani / Binding of serum 37 to linear peptides of protein X3 of SARS-CoV Urbani / Binding of serum 37 to looped/cyclic peptides of protein X3 of SARS-CoV Urbani / Binding of serum 6 to linear peptides of protein X4 of SARS-CoV Urbani / Binding of serum 37 to linear peptides of protein X4 of SARS-CoV Urbani / Binding of serum 37 to looped/cyclic peptides of protein X4 of SARS-CoV Urbani / Binding of serum 6 to linear peptides of protein X5 of SARS-CoV Urbani / Binding of serum 37 to linear peptides of protein X5 of SARS-CoV Urbani / Binding of serum 37 to looped/cyclic peptides of protein X5 of SARS-CoV Urbani / Binding of serum 6 to linear peptides of protein N of SARS-CoV Urbani / Binding of serum 37 to linear peptides of protein N of SARS-CoV Urbani / Binding of serum 6 to linear peptide (PEPSCAN-ELISA) / Binding of serum 1a to looped/cyclic peptides of protein N of SARS-CoV Urbani / Binding of serum 1b to looped/cyclic peptides of protein N of SARS-CoV Urbani / Binding of serum 2 to looped/cyclic peptides of protein N of SARS-CoV Urbani / Binding of serum 6 to looped/cyclic peptides of protein N of SARS-CoV Urbani / Binding of serum 37 to looped/cyclic peptides of protein N of SARS-CoV Urbani / Binding of serum 62 to looped/cyclic peptides of protein N of SARS-CoV Urbani / Binding of serum London to looped/cyclic peptides of protein N of SARS-CoV Urbani / Binding of serum SARS-green to looped/cyclic peptides of protein N of SARS-CoV Urbani: unit not given here.

Experiment [4] relates to control sera (pooled serum of ten healthy LUMC hospital workers; commercial negative donor pooled serum from the Dutch bloodbank). The experiment is classed as binding, human. Also noted: Binding of Control serum LUMC to linear peptides / Binding of Control serum Blood-bank to linear peptides / Binding of Control serum LUMC to looped peptides / Binding of Control Serum Blood-Bank to Looped peptides / Binding of Control serum LUMC to linear peptides of the protein M of SARS-CoV Urbani / Binding of Control serum Blood-bank to linear peptides of the protein M of SARS-CoV Urbani / Binding of Control serum LUMC to looped peptides of the protein M of SARS-CoV Urbani / Binding of Control Serum Blood-Bank to Looped peptides of the protein M of SARS-CoV Urbani: unit not given here.

With QRRPQGLPNNTASWF, in experiment [1], the “Binding of a rabbit serum to linear peptides of protein N of SARS-CoV Urbani (Rabbit serum linear peptides)” value (shortened to “Binding … (Rabbit serum linear peptides)”) is given as 0.1 and the “Binding of a rabbit serum to looped/cyclic peptides of protein N of SARS-CoV Urbani (Rabbit serum looped peptides)” value is recorded as 0.6. Besides, in experiment [2], the “Binding of antibody 03-018 to linear peptides of the N protein of SARS-CoV Urbani” value is 0.1 and the “Binding of antibody 03-018 to looped/cyclic peptides of the N protein of SARS-CoV Urbani” value worked out at 0.2. For the same sequence, in experiment [3], the “Binding of serum 1a to linear peptides of protein N of SARS-CoV Urbani” value amounted to 0.2, the “Binding of serum 1a to looped/cyclic peptides of protein N of SARS-CoV Urbani” value is on record as 0.5, the “Binding of serum 1b to linear peptides of protein N of SARS-CoV Urbani” value is 0.1 and the “Binding of serum 1b to looped/cyclic peptides of protein N of SARS-CoV Urbani” value is 0.3. Moreover, in experiment [3], the “Binding of serum 2 to linear peptides of protein N of SARS-CoV Urbani” value is listed as 0.1, the “Binding of serum 2 to looped/cyclic peptides of protein N of SARS-CoV Urbani” value worked out at 0.5, the “Binding of serum 6 to linear peptides of protein N of SARS-CoV Urbani” value came to 0.2 and the “Binding of serum 6 to looped/cyclic peptides of protein N of SARS-CoV Urbani” value is 0.4. Besides, in experiment [3], the “Binding of serum 37 to linear peptides of protein N of SARS-CoV Urbani” value was determined as 0.6, the “Binding of serum 37 to looped/cyclic peptides of protein N of SARS-CoV Urbani” value turned out to be 0.7, the “Binding of serum 62 to linear peptides of protein N of SARS-CoV Urbani” value stood at 0.7 and the “Binding of serum 62 to looped/cyclic peptides of protein N of SARS-CoV Urbani” value is given as 0.6. In addition, in experiment [3], the “Binding of serum London to linear peptides of protein N of SARS-CoV Urbani” value is given as 0.4, the “Binding of serum London to looped/cyclic peptides of protein N of SARS-CoV Urbani” value came out at 0.5, the “Binding of serum SARS-green to linear peptides of protein N of SARS-CoV Urbani” value was 0.2 and the “Binding of serum SARS-green to looped/cyclic peptides of protein N of SARS-CoV Urbani” value is recorded as 0.7. In addition, in experiment [3], the “Binding of serum SARS-yellow to linear peptides of protein N of SARS-CoV Urbani” value came to 0.7 and the “Binding of serum SARS-yellow to looped/cyclic peptides of protein N of SARS-CoV Urbani” value worked out at 0.6. Besides, in experiment [4], the “Binding of Control Serum Blood-Bank to Looped peptides” value is reported as 0.8, the “Binding of Control serum Blood-bank to linear peptides” value was found to be 0.7, the “Binding of Control serum LUMC to linear peptides” value stood at 0.6 and the “Binding of Control serum LUMC to looped peptides” value stood at 0.9.
As for QTQGNFGDQDLIRQG, in experiment [1], the “Binding … (Rabbit serum linear peptides)” value was found to be 0.1 and the “Binding of a rabbit serum to looped/cyclic peptides of protein N of SARS-CoV Urbani (Rabbit serum looped peptides)” value was 0.6. Besides, in experiment [2], the “Binding of antibody 03-018 to linear peptides of the N protein of SARS-CoV Urbani” value is given as 0.1 and the “Binding of antibody 03-018 to looped/cyclic peptides of the N protein of SARS-CoV Urbani” value worked out at 0.2. Moreover, in experiment [3], the “Binding of serum 1a to looped/cyclic peptides of protein N of SARS-CoV Urbani” value is reported as 0.5, the “Binding of serum 1b to looped/cyclic peptides of protein N of SARS-CoV Urbani” value is 0.4, the “Binding of serum 2 to looped/cyclic peptides of protein N of SARS-CoV Urbani” value worked out at 0.5 and the “Binding of serum 6 to looped/cyclic peptides of protein N of SARS-CoV Urbani” value worked out at 0.3. Further, in experiment [3], the “Binding of serum 37 to looped/cyclic peptides of protein N of SARS-CoV Urbani” value was determined as 0.9, the “Binding of serum 62 to looped/cyclic peptides of protein N of SARS-CoV Urbani” value came to 0.9, the “Binding of serum London to looped/cyclic peptides of protein N of SARS-CoV Urbani” value came to 0.6 and the “Binding of serum SARS-green to looped/cyclic peptides of protein N of SARS-CoV Urbani” value worked out at 0.4. For the same sequence, in experiment [3], the “Binding of serum SARS-yellow to looped/cyclic peptides of protein N of SARS-CoV Urbani” value worked out at 0.8; the “Recognition of the peptide by sera of SARS-CoV infected individuals, and form (linear, looped/cyclic) in which it is recognized” value is “recognized in linear form”. Moreover, in experiment [4], the “Binding of Control Serum Blood-Bank to Looped peptides” value is reported as 0.8, the “Binding of Control serum Blood-bank to linear peptides” value worked out at 0.9, the “Binding of Control serum LUMC to linear peptides” value was 0.9 and the “Binding of Control serum LUMC to looped peptides” value turned out to be 0.7.
Turning to QTVTKKSAAEASKKP, in experiment [1], the “Binding … (Rabbit serum linear peptides)” value came to 0.2 and the “Binding of a rabbit serum to looped/cyclic peptides of protein N of SARS-CoV Urbani (Rabbit serum looped peptides)” value turned out to be 0.3. In experiment [2], the “Binding of antibody 03-018 to linear peptides of the N protein of SARS-CoV Urbani” value was 0.1 and the “Binding of antibody 03-018 to looped/cyclic peptides of the N protein of SARS-CoV Urbani” value was 0.2. In experiment [3], the “Binding of serum 1a to looped/cyclic peptides of protein N of SARS-CoV Urbani” value turned out to be 0.3, the “Binding of serum 1b to looped/cyclic peptides of protein N of SARS-CoV Urbani” value is 0.2, the “Binding of serum 2 to looped/cyclic peptides of protein N of SARS-CoV Urbani” value came out at 0.4 and the “Binding of serum 6 to looped/cyclic peptides of protein N of SARS-CoV Urbani” value worked out at 0.2. Further, in experiment [3], the “Binding of serum 37 to looped/cyclic peptides of protein N of SARS-CoV Urbani” value was 0.5, the “Binding of serum 62 to looped/cyclic peptides of protein N of SARS-CoV Urbani” value was 0.3, the “Binding of serum London to looped/cyclic peptides of protein N of SARS-CoV Urbani” value is recorded as 0.3 and the “Binding of serum SARS-green to looped/cyclic peptides of protein N of SARS-CoV Urbani” value came to 0.0. Moreover, in experiment [3], the “Binding of serum SARS-yellow to looped/cyclic peptides of protein N of SARS-CoV Urbani” value came out at 0.2; the “Recognition of the peptide by sera of SARS-CoV infected individuals, and form (linear, looped/cyclic) in which it is recognized” value is listed as “recognized in linear form”. Further, in experiment [4], the “Binding of Control Serum Blood-Bank to Looped peptides” value stood at 0.5, the “Binding of Control serum Blood-bank to linear peptides” value stood at 0.8, the “Binding of Control serum LUMC to linear peptides” value was determined as 0.9 and the “Binding of Control serum LUMC to looped peptides” value worked out at 0.5.
Take RATRRVRGGDGKMKE: in experiment [1], the “Binding … (Rabbit serum linear peptides)” value is recorded as 0.2 and the “Binding of a rabbit serum to looped/cyclic peptides of protein N of SARS-CoV Urbani (Rabbit serum looped peptides)” value was found to be 0.2. In addition, in experiment [2], the “Binding of antibody 03-018 to linear peptides of the N protein of SARS-CoV Urbani” value is given as 0.1 and the “Binding of antibody 03-018 to looped/cyclic peptides of the N protein of SARS-CoV Urbani” value was 0.2. In addition, in experiment [3], the “Binding of serum 1a to linear peptides of protein N of SARS-CoV Urbani” value stood at 0.2, the “Binding of serum 1a to looped/cyclic peptides of protein N of SARS-CoV Urbani” value was determined as 0.2, the “Binding of serum 1b to linear peptides of protein N of SARS-CoV Urbani” value is 0.1 and the “Binding of serum 1b to looped/cyclic peptides of protein N of SARS-CoV Urbani” value stood at 0.1. Moreover, in experiment [3], the “Binding of serum 2 to linear peptides of protein N of SARS-CoV Urbani” value is 0.4, the “Binding of serum 2 to looped/cyclic peptides of protein N of SARS-CoV Urbani” value is on record as 0.2, the “Binding of serum 6 to linear peptides of protein N of SARS-CoV Urbani” value was found to be 0.2 and the “Binding of serum 6 to looped/cyclic peptides of protein N of SARS-CoV Urbani” value came out at 0.1. Further, in experiment [3], the “Binding of serum 37 to linear peptides of protein N of SARS-CoV Urbani” value was determined as 0.8, the “Binding of serum 37 to looped/cyclic peptides of protein N of SARS-CoV Urbani” value was determined as 0.5, the “Binding of serum 62 to linear peptides of protein N of SARS-CoV Urbani” value was 0.7 and the “Binding of serum 62 to looped/cyclic peptides of protein N of SARS-CoV Urbani” value worked out at 0.2. Also, in experiment [3], the “Binding of serum London to linear peptides of protein N of SARS-CoV Urbani” value came to 0.5, the “Binding of serum London to looped/cyclic peptides of protein N of SARS-CoV Urbani” value came to 0.2, the “Binding of serum SARS-green to linear peptides of protein N of SARS-CoV Urbani” value is listed as 0.3 and the “Binding of serum SARS-green to looped/cyclic peptides of protein N of SARS-CoV Urbani” value is 0.0. In addition, in experiment [3], the “Binding of serum SARS-yellow to linear peptides of protein N of SARS-CoV Urbani” value was determined as 0.6 and the “Binding of serum SARS-yellow to looped/cyclic peptides of protein N of SARS-CoV Urbani” value was found to be 0.3. In experiment [4], the “Binding of Control Serum Blood-Bank to Looped peptides” value was found to be 0.4, the “Binding of Control serum Blood-bank to linear peptides” value is listed as 0.8, the “Binding of Control serum LUMC to linear peptides” value came out at 0.7 and the “Binding of Control serum LUMC to looped peptides” value is 0.3.

Values taken from US20070128217A1 (priority 2003, published 2007).
